Experimental data as given in ChEMBL document CHEMBL1201862, “PubChem BioAssay data set” (2004).
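Five compound concentrations were applied to cells in 96-well plates for 48 hours; endpoints were derived by simple linear interpolation of the resulting dose-response curve. The concentration for 50% growth inhibition is given as GI50.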 Activity calls are given as the source filed them. No stated cut-off is given here; in the data, active = GI50 up to about 1.1 µM and inactive = higher.

Tests used:
Experiment in all cases: NCI tumour cell line growth inhibition, 48 h
[1] = system: NCI-H522
[2] = system: NCI-H226
[3] = system: OVCAR-8
[4] = system: SK-MEL-28
[5] = system: A549
[6] = system: Malme-3M
[7] = system: HOP-18
[8] = system: SNB-19
[9] = system: SF-539
[10] = system: MOLT-4
[11] = system: SF-268
[12] = system: OVCAR-5
[13] = system: CCRF-CEM
[14] = system: EKVX
[15] = system: HL-60
[16] = system: U-251
[17] = system: SK-OV-3
[18] = system: HCT-15
[19] = system: T47D
[20] = system: NCI/ADR-RES

SMILES	GI50 [1]	GI50 [2]	GI50 [3]	GI50 [4]	GI50 [5]	GI50 [6]	GI50 [7]	GI50 [8]	GI50 [9]	GI50 [10]	GI50 [11]	GI50 [12]	GI50 [13]	GI50 [14]	GI50 [15]	GI50 [16]	GI50 [17]	GI50 [18] [µM]	GI50 [19]	GI50 [20]
CCOC(=O)C(CCCNC(=O)OC(C)(C)C)N(Cc1ccc(OC)cc1OC)C(=O)CC(=O)CP(=O)(OCC)OCC (stereo not given)	29 µM (inactive)	> 100 µM (inactive)	> 100 µM (inactive)	> 100 µM (inactive)	> 100 µM (inactive)	> 100 µM (inactive)	> 100 µM (inactive)	> 100 µM (inactive)	> 100 µM (inactive)	56.5 µM (inactive)	> 100 µM (inactive)	> 100 µM (inactive)	> 100 µM (inactive)	> 100 µM (inactive)	97.7 µM (inactive)	> 100 µM (inactive)	> 100 µM (inactive)	–	–	–
O=c1c2cc3c(cc2c2cccc4c2n1CCC4)OCO3	16.2 µM (inactive)	> 100 µM (inactive)	48.1 µM (inactive)	69.5 µM (inactive)	51.6 µM (inactive)	86.1 µM (inactive)	49.5 µM (inactive)	44.7 µM (inactive)	30.4 µM (inactive)	24.6 µM (inactive)	–	58.7 µM (inactive)	89.3 µM (inactive)	33 µM (inactive)	53.8 µM (inactive)	23.1 µM (inactive)	55.3 µM (inactive)	36.7	–	–
O=C(CSc1nnc(Cc2ccccc2)o1)Nc1ccc(Cl)cc1[N+](=O)[O-]	3.17 µM (inactive)	21.2 µM (inactive)	29.8 µM (inactive)	15.5 µM (inactive)	18.9 µM (inactive)	16.4 µM (inactive)	14.7 µM (inactive)	14.4 µM (inactive)	–	18.9 µM (inactive)	21.5 µM (inactive)	–	15.6 µM (inactive)	20.3 µM (inactive)	24.7 µM (inactive)	19.5 µM (inactive)	34.5 µM (inactive)	16.5	–	–
Cc1[nH]c2c(C)cccc2c1C1Cc2ccccc2N1 (stereo not given)	19.5 µM (inactive)	23.8 µM (inactive)	19.5 µM (inactive)	18.8 µM (inactive)	21.7 µM (inactive)	19.1 µM (inactive)	17.8 µM (inactive)	29.1 µM (inactive)	17.8 µM (inactive)	20.5 µM (inactive)	20.5 µM (inactive)	21.2 µM (inactive)	25.5 µM (inactive)	15.5 µM (inactive)	19.8 µM (inactive)	20 µM (inactive)	36.5 µM (inactive)	21.3	–	–
COc1cc2noc(-c3ccccc3)c2cc1OC	36.4 µM (inactive)	> 100 µM (inactive)	64.4 µM (inactive)	–	54.3 µM (inactive)	> 100 µM (inactive)	> 100 µM (inactive)	54 µM (inactive)	10.6 µM (inactive)	26.4 µM (inactive)	54 µM (inactive)	29.2 µM (inactive)	42.5 µM (inactive)	–	40.1 µM (inactive)	26.7 µM (inactive)	63 µM (inactive)	38.7	–	–
COc1ccc(N2C(=O)/C(=C/c3ccc(N(CCC#N)CCC#N)cc3C)N=C2c2cc([N+](=O)[O-])ccc2Cl)cc1	2.74 µM (inactive)	17 µM (inactive)	5.33 µM (inactive)	11 µM (inactive)	4.89 µM (inactive)	27 µM (inactive)	> 100 µM (inactive)	8.13 µM (inactive)	3.37 µM (inactive)	4.73 µM (inactive)	11 µM (inactive)	25.4 µM (inactive)	3.77 µM (inactive)	14.5 µM (inactive)	3.62 µM (inactive)	4.42 µM (inactive)	4.54 µM (inactive)	3.84	> 89.9 µM (inactive)	> 10 µM (inactive)
O=C(CCc1nnc2s/c(=C\c3ccc(Cl)cc3Cl)c(=O)n12)Nc1cc(Cl)c(Cl)cc1Cl	2.31 µM (inactive)	> 10 µM (inactive)	> 10 µM (inactive)	> 10 µM (inactive)	> 10 µM (inactive)	> 10 µM (inactive)	> 10 µM (inactive)	> 10 µM (inactive)	> 10 µM (inactive)	> 10 µM (inactive)	> 10 µM (inactive)	> 10 µM (inactive)	> 10 µM (inactive)	> 10 µM (inactive)	> 100 µM (inactive)	72.4 µM (inactive)	> 10 µM (inactive)	> 10	–	–
CCCCCCCCCCCCCC(=O)NCC(OCC)OCC	> 100 µM (inactive)	> 100 µM (inactive)	> 100 µM (inactive)	> 100 µM (inactive)	> 100 µM (inactive)	> 100 µM (inactive)	> 100 µM (inactive)	> 100 µM (inactive)	> 100 µM (inactive)	–	> 100 µM (inactive)	> 100 µM (inactive)	> 100 µM (inactive)	> 100 µM (inactive)	> 100 µM (inactive)	> 100 µM (inactive)	> 100 µM (inactive)	> 100	–	–
Cc1cc(Br)ccc1NC1=CC(=O)C(=O)c2ccccc21	30.8 µM (inactive)	39.8 µM (inactive)	42.2 µM (inactive)	45.3 µM (inactive)	39.1 µM (inactive)	24.3 µM (inactive)	16 µM (inactive)	24.2 µM (inactive)	74.8 µM (inactive)	39.4 µM (inactive)	47.4 µM (inactive)	70.8 µM (inactive)	35.1 µM (inactive)	> 100 µM (inactive)	13.6 µM (inactive)	26.4 µM (inactive)	49.3 µM (inactive)	55.2	–	–
N#CC(C(=N/NC(N)=S)/C(=N\NC(N)=S)C(C#N)c1ccccc1)c1ccccc1 (stereo not given)	> 10 µM (inactive)	> 10 µM (inactive)	> 10 µM (inactive)	> 10 µM (inactive)	> 10 µM (inactive)	> 10 µM (inactive)	> 10 µM (inactive)	> 10 µM (inactive)	> 10 µM (inactive)	> 10 µM (inactive)	> 10 µM (inactive)	> 10 µM (inactive)	> 10 µM (inactive)	> 10 µM (inactive)	> 10 µM (inactive)	> 10 µM (inactive)	> 10 µM (inactive)	> 10	–	–
CN1CCc2ccccc2C(C(=O)c2ccc3c(c2)OCO3)C1=O (stereo not given)	> 100 µM (inactive)	99.5 µM (inactive)	> 100 µM (inactive)	> 100 µM (inactive)	> 100 µM (inactive)	> 100 µM (inactive)	> 100 µM (inactive)	> 100 µM (inactive)	–	> 100 µM (inactive)	> 100 µM (inactive)	–	> 100 µM (inactive)	–	> 100 µM (inactive)	> 100 µM (inactive)	> 100 µM (inactive)	> 100	–	–
O=C1c2ccccc2N2OC3(N4CCCC4)CCCCC3C12c1ccccc1 (stereo not given)	14.9 µM (inactive)	37.3 µM (inactive)	17.5 µM (inactive)	25.4 µM (inactive)	21 µM (inactive)	18.8 µM (inactive)	> 100 µM (inactive)	> 100 µM (inactive)	31.4 µM (inactive)	35.7 µM (inactive)	16.6 µM (inactive)	–	18.7 µM (inactive)	69.8 µM (inactive)	19.1 µM (inactive)	28.1 µM (inactive)	> 100 µM (inactive)	26.4	–	–
COc1cc(/C=C2\CCc3ccccc3C2=O)cc(OC)c1OC	14.8 µM (inactive)	18.6 µM (inactive)	16.2 µM (inactive)	15.1 µM (inactive)	20.9 µM (inactive)	16.4 µM (inactive)	13.6 µM (inactive)	15.8 µM (inactive)	16.9 µM (inactive)	9.4 µM (inactive)	16.4 µM (inactive)	14.4 µM (inactive)	4.89 µM (inactive)	17.9 µM (inactive)	10.7 µM (inactive)	16.1 µM (inactive)	18.6 µM (inactive)	17.3	–	–
